Reference: patent publication US20250042912A1, “NOVEL NON-FLUORINATED QUINOLONE COMPOUND AND USE THEREOF” (priority 2021, published 2025)

Test system: IL-6
Test: Acne model in mice: IL-6 level in left ear tissue
Assay type: in vivo, Balb/C mice
Protocol: Experimental strain: Propionibacterium acnes ATCC 6919 (Beijing Biobw Biotechnology Co., Ltd.) Experimental animals: Balb/C mice (Zhejiang Vital River Laboratory Animal Technology Co., Ltd.) Balb/C mice were grouped and numbered, and adaptively fed for one week. On the day of modeling, Propionibacterium acnes was taken, and OD600 was measured using a microplate reader. BH1 culture medium was diluted to OD600=1 (about 5×10^8 CFU/mL), centrifuged to discard supernatant, and the remaining culture was diluted to 1×10^8 CFU/mL with PBS. Once the molding began, the mice were anesthetized with a small animal anesthesia machine, the air flow and isoflurane content of the anesthesia machine were adjusted, and the mice were placed in an anesthesia induction chamber for anesthesia induction. […] Mouse BCA protein detection: after Propionibacterium acnes was injected for 48 hours, the BCA protein detection was detected by using the BCA protein concentration assay kit. The left ear of mouse was homogenized with 1 mL of PBS and the dilution factor equivalent to a mass volume ratio of 1:9 was calculated, then centrifuged at 1500 g for 10 minutes. […] […] was measured with a microplate reader, the standard curves were plotted, and the BCA concentrations were calculated. […]

## CN(C)c1cc2c(cn1)-c1ccc3c(=O)c(C(=O)O)cn(C4CC4)c3c1COC2 [Compound 6]
Balb/C mice, left ear homogenate, 48 hours after injection of Propionibacterium acnes, 15 μL applied at 4, 20, 28, 44 hours, drugs as hydrochloride
  IL-6 Mean ± SD: 322.4 ± 43.33 pg/mg
Compared with acne model group, p<0.001, in words
  IL-6 content in the left ear tissues of mice after treatment: significantly reduced
